Counter-ions that a name gives are not always drawn.

The first test deals with HBV rcDNA in HepDE19 cells. Put plainly: HepDE19 assay with bDNA quantitation of HBV rcDNA. The test is classed as cell-based, hepatitis B virus (HBV). The note with it: HepDE19 cells, inhibition of rcDNA formation, 7 day incubation, top concentration 25 μM; read-out: DE-19 bDNA EC50.
Regarding `CO[C@@H]1Cc2c(C(=O)Nc3ccc(F)c(Cl)c3)ccc(F)c2[C@H]1NC(=O)OCc1ccccn1` [Compound 178, O-Pyridin-2-ylmethyl, N-((1R,2R)-4-((3-chloro-4-fluorophenyl)carbamoyl)-7-fluoro-2-methoxy-2,3-dihydro-1H-inden-1-yl) carbamate], the EC50 is 0.04 µM.

The same test, now with this note: Hepatitis B virus, HepDE19, 168 h, HepDE19 cells, inhibition of rcDNA formation, 7 day incubation, top concentration 25 μM; read-out: DE-19 bDNA EC50.
With `O=C(N[C@H]1CCc2c(C(=O)Nc3ccc(F)c(Cl)c3)ccc(F)c21)OC1CCC(O)CC1` (stereo partly drawn) [Compound 154, O-cis-4-Hydroxycyclohexyl, N—((S)-4-((3-chloro-4-fluorophenyl)carbamoyl)-7-fluoro-2,3-dihydro-1H-inden-1-yl) carbamate], the EC50 was determined as 0.35 µM.

In the case of `CCC(=O)N[C@H]1CCc2c(C(=O)Nc3ccc(F)c(Cl)c3)ccc(F)c21` [Compound 158, (S)-N-(3-chloro-4-fluorophenyl)-7-fluoro-1-propionamido-2,3-dihydro-1H-indene-4-carboxamide], the EC50 was determined as 0.81 µM.

As for `O=C1C[C@H](OC(=O)N[C@H]2CCc3c(C(=O)Nc4ccc(F)c(Cl)c4)ccc(F)c32)CN1` [Compound 166, O—(S)-5-Oxopyrrolidin-3-yl, N—((S)-4-((3-chloro-4-fluorophenyl)carbamoyl)-7-fluoro-2,3-dihydro-1H-inden-1-yl) carbamate], the EC50 came to 0.14 µM.

Regarding `O=C(N[C@H]1CCc2c(C(=O)Nc3ccc(F)c(Cl)c3)ccc(F)c21)O[C@@H]1CCOC1` [Compound 170, O—(R)-Tetrahydrofuran-3-yl, N—((S)-4-((3-chloro-4-fluorophenyl)carbamoyl)-7-fluoro-2,3-dihydro-1H-inden-1-yl) carbamate], the EC50 turned out to be 0.26 µM.

For the compound `Cn1ccc(CCC(=O)N[C@H]2CCc3c(C(=O)Nc4ccc(F)c(Cl)c4)ccc(F)c32)n1` [Compound 171, (S)—N-(3-Chloro-4-fluorophenyl)-7-fluoro-1-(3-(1-methyl-1H-pyrazol-3-yl)propanamido)-2,3-dihydro-1H-indene-4-carboxamide], the EC50 was determined as 0.13 µM.

Regarding `O=C(Nc1ccc(F)c(Cl)c1)c1ccc(F)c2c1CC[C@@H]2NC(=O)C1CC1` [Compound 179, (S)—N-(3-Chloro-4-fluorophenyl)-1-(cyclopropanecarboxamido)-7-fluoro-2,3-dihydro-1H-indene-4-carboxamide], the EC50 amounted to 0.14 µM.

The same test, now with this note: Hepatitis B virus, HepDE19, 168 h, read-out: DE-19 bDNA EC50 (μM), HepDE19 cells, inhibition of rcDNA formation, 7 day incubation, top concentration 25 μM.
For `Cc1cnc(COC(=O)N[C@H]2CCc3c(C(=O)Nc4ccc(F)c(Cl)c4)ccc(F)c32)cn1` [Compound 152, O-(5-Methylpyrazin-2-yl)methyl, N—(S)-(4-((3-chloro-4-fluorophenyl)carbamoyl)-7-fluoro-2,3-dihydro-1H-inden-1-yl)carbamate], the EC50 worked out at 0.07 µM.

Take `O=C(N[C@H]1CCc2c(C(=O)Nc3ccc(F)c(Cl)c3)ccc(F)c21)OCCN1CCOCC1` [Compound 153, O-2-Morpholinoethyl, N—(S)-(4-((3-chloro-4-fluorophenyl)carbamoyl)-7-fluoro-2,3-dihydro-1H-inden-1-yl) carbamate]: the EC50 came to 0.47 µM.

Consider `O=C(N[C@H]1CCc2c(C(=O)Nc3ccc(F)c(Cl)c3)ccc(F)c21)OCCCO` [Compound 155, O-3-Hydroxypropyl, N—(S)-(4-((3-chloro-4-fluorophenyl)carbamoyl)-7-fluoro-2,3-dihydro-1H-inden-1-yl) carbamate], for which the EC50 is 24 µM.

Turning to `CC(=O)NCCOC(=O)N[C@H]1CCc2c(C(=O)Nc3ccc(F)c(Cl)c3)ccc(F)c21` [Compound 157, O-2-Acetamidoethyl, N—(S)-(4-((3-chloro-4-fluorophenyl)carbamoyl)-7-fluoro-2,3-dihydro-1H-inden-1-yl) carbamate], the EC50 amounted to 0.26 µM.

Take `COc1ccnc(N[C@H]2CCc3c(C(=O)Nc4ccc(F)c(Cl)c4)ccc(F)c32)n1` [Compound 159, (S)—N-(3-Chloro-4-fluorophenyl)-7-fluoro-1-((4-methoxypyrimidin-2-yl)amino)-2,3-dihydro-1H-indene-4-carboxamide]: the EC50 worked out at 0.69 µM.

On to `Cc1ccnc(N[C@H]2CCc3c(C(=O)Nc4ccc(F)c(Cl)c4)ccc(F)c32)n1` [Compound 160], for which the EC50 came out at 0.25 µM.

Turning to `COc1nccc(N[C@H]2CCc3c(C(=O)Nc4ccc(F)c(Cl)c4)ccc(F)c32)n1` [Compound 161, (S)—N-(3-Chloro-4-fluorophenyl)-7-fluoro-1-((2-methoxypyrimidin-4-yl)amino)-2,3-dihydro-1H-indene-4-carboxamide], the EC50 came to 0.27 µM.

On to `Cc1cnc(N[C@H]2CCc3c(C(=O)Nc4ccc(F)c(Cl)c4)ccc(F)c32)nc1` [Compound 162, (S)—N-(3-Chloro-4-fluorophenyl)-7-fluoro-1-((5-methylpyrimidin-2-yl)amino)-2,3-dihydro-1H-indene-4-carboxamide], for which the EC50 was 0.15 µM.

`COc1cc(N[C@H]2CCc3c(C(=O)Nc4ccc(F)c(Cl)c4)ccc(F)c32)ncn1` [Compound 163, (S)—N-(3-Chloro-4-fluorophenyl)-7-fluoro-1-((6-methoxypyrimidin-4-yl)amino)-2,3-dihydro-1H-indene-4-carboxamide]: the EC50 was found to be 0.07 µM.

Take `Cc1cc(C)nc(N[C@H]2CCc3c(C(=O)Nc4ccc(F)c(Cl)c4)ccc(F)c32)n1` [Compound 164, (S)—N-(3-Chloro-4-fluorophenyl)-1-((4,6-dimethylpyrimidin-2-yl)amino)-7-fluoro-2,3-dihydro-1H-indene-4-carboxamide]: the EC50 stood at 1 µM.

Take `CNC(=O)N[C@@H]1c2cccc(C(=O)Nc3ccc(F)c(Cl)c3)c2C[C@H]1OC` [Compound 165, (1R,2R)—N-(3-Chloro-4-fluorophenyl)-2-methoxy-1-(3-methylureido)-2,3-dihydro-1H-indene-4-carboxamide]: the EC50 came to 0.33 µM.

Turning to `O=C(Nc1ccc(F)c(Cl)c1)c1ccc(F)c2c1CC[C@@H]2NS(=O)(=O)CCc1ccccn1` [Compound 167, (S)—N-(3-Chloro-4-fluorophenyl)-7-fluoro-1-((2-(pyridin-2-yl)ethyl)sulfonamido)-2,3-dihydro-1H-indene-4-carboxamide Hydrochloride], the EC50 was 0.29 µM.

As to `O=C(N[C@H]1CCc2c(C(=O)Nc3ccc(F)c(Cl)c3)ccc(F)c21)OCc1cccc(C(F)(F)F)n1` [Compound 168, O-(6-(Trifluoromethyl)pyridin-2-yl)methyl, N—(S)-(4-((3-chloro-4-fluorophenyl)carbamoyl)-7-fluoro-2,3-dihydro-1H-inden-1-yl) carbamate], the EC50 came out at 0.62 µM.

With `O=C(N[C@H]1CCc2c(C(=O)Nc3ccc(F)c(Cl)c3)ccc(F)c21)OCc1ccc(C(F)(F)F)cn1` [Compound 169, O-(5-(Trifluoromethyl)pyridin-2-yl)methyl, N—(S)-(4-((3-chloro-4-fluorophenyl)carbamoyl)-7-fluoro-2,3-dihydro-1H-inden-1-yl) carbamate], the EC50 was 2.2 µM.

Consider `N#Cc1ccc(COC(=O)N[C@H]2CCc3c(C(=O)Nc4ccc(F)c(Cl)c4)ccc(F)c32)nc1` [Compound 172, O-(5-Cyanopyridin-2-yl)methyl, N—(S)-(4-((3-chloro-4-fluorophenyl)carbamoyl)-7-fluoro-2,3-dihydro-1H-inden-1-yl) carbamate], for which the EC50 came out at 0.19 µM.

For the compound `Cc1nccnc1COC(=O)N[C@H]1CCc2c(C(=O)Nc3ccc(F)c(Cl)c3)ccc(F)c21` [Compound 173, O-(3-Methylpyrazin-2-yl)methyl, N—(S)-(4-((3-chloro-4-fluorophenyl)carbamoyl)-7-fluoro-2,3-dihydro-1H-inden-1-yl) carbamate], the EC50 is 0.12 µM.

Regarding `CC(=O)N1CCC(COC(=O)N[C@H]2CCc3c(C(=O)Nc4ccc(F)c(Cl)c4)ccc(F)c32)CC1` [Compound 174, O-(1-Acetylpiperidin-4-yl)methyl, N—(S)-(4-((3-chloro-4-fluorophenyl)carbamoyl)-7-fluoro-2,3-dihydro-1H-inden-1-yl) carbamate], the EC50 is 0.87 µM.

Turning to `O=C(N[C@H]1CCc2c(C(=O)Nc3ccc(F)c(Cl)c3)ccc(F)c21)OCC1CCN(C(=O)CO)CC1` [Compound 175, O-(1-(2-Hydroxyacetyl)piperidin-4-yl)methyl, N—(S)-(4-((3-chloro-4-fluorophenyl)carbamoyl)-7-fluoro-2,3-dihydro-1H-inden-1-yl) carbamate], the EC50 turned out to be 0.96 µM.

On to `CNC(=O)N1CCC(COC(=O)N[C@H]2CCc3c(C(=O)Nc4ccc(F)c(Cl)c4)ccc(F)c32)CC1` [Compound 176, O-(1-(Methylcarbamoyl)piperidin-4-yl)methyl, N—(S)-(4-((3-chloro-4-fluorophenyl)carbamoyl)-7-fluoro-2,3-dihydro-1H-inden-1-yl) carbamate], for which the EC50 stood at 0.64 µM.

Take `O=C(N[C@H]1CCc2c(C(=O)Nc3ccc(F)c(Cl)c3)ccc(F)c21)OCC1CS(=O)(=O)CCN1` (stereo partly drawn) [Compound 177, O-(1,1-Dioxidothiomorpholin-3-yl)methyl, N—((S)-4-((3-chloro-4-fluorophenyl)carbamoyl)-7-fluoro-2,3-dihydro-1H-inden-1-yl) carbamate Hydrochloride]: the EC50 turned out to be 0.5 µM.

Turning to `O=C(N[C@H]1CCc2c(C(=O)Nc3ccc(F)c(Cl)c3)ccc(F)c21)OC[C@@H]1COCCN1` [Compound 180, O—((S)-Morpholin-3-yl)methyl, N—((S)-4-((3-chloro-4-fluorophenyl)carbamoyl)-7-fluoro-2,3-dihydro-1H-inden-1-yl) carbamate Hydrochloride], the EC50 is 0.2 µM.

Staying with this test, now noted: read-out: DE-19 bDNA EC50; HepDE19 cells, inhibition of rcDNA formation, 7 day incubation, top concentration 25 μM.
As for `O=C(N[C@H]1CCc2c(C(=O)Nc3ccc(F)c(Cl)c3)ccc(F)c21)OC1CCC(O)CC1` (stereo partly drawn) [Compound 156, O-trans-4-Hydroxycyclohexyl, N—((S)-4-((3-chloro-4-fluorophenyl)carbamoyl)-7-fluoro-2,3-dihydro-1H-inden-1-yl) carbamate], the EC50 was found to be 0.22 µM.

The record behind these values is US11098010B2 (priority 2017, dated 2021).
